How the values were obtained:
[1] = target: T1, human sphingosine-1-phosphate receptor 1 (S1P1) (Homo sapiens (Human), UniProt P21453); assay: Inhibition of cAMP production (HTRF cAMP HiRange), S1P1 CHO-K1 cells; assay type: cell-based; conditions: for hS1P1 cAMP pEC50: inhibition of cAMP production, S1P1 CHO-K1 cells; for Emax: CHO-K1, efficacy (SPAN) normalized to fingolimod, read-out: hS1P1 cAMP SPAN
Summary of the method: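 CHO-K1 cells stably co-expressing human S1P1 (C-terminal Prolink tag) and EA-β-arrestin2 were grown in AssayComplete Media 6 at 37° C. and 5% CO2, plated, and incubated overnight. Agonist-driven inhibition of intracellular cAMP was read by TR-FRET with the HTRF cAMP HiRange kit on a PheraStar reader. Potency is pEC50, and efficacy (SPAN) is normalized to fingolimod.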
Target sequence in this assay (P21453 whole entry, looked up): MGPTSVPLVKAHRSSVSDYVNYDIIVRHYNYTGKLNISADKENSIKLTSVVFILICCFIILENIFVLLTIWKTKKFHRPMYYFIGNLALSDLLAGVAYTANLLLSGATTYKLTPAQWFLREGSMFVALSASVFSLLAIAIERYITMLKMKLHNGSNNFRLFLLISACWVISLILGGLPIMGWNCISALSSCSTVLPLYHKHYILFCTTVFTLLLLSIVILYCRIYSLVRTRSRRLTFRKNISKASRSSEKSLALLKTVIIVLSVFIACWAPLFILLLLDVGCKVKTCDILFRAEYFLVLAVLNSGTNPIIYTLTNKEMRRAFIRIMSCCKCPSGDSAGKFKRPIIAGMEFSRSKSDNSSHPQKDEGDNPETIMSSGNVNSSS

[2] = target: T1, human sphingosine-1-phosphate receptor 1 (S1P1); assay: β-Arrestin2 recruitment assay (PathHunter), S1P1 CHO-K1 cells; assay type: cell-based; conditions: for hS1P1 B-arrestin2 pEC50: β-arrestin2 recruitment, S1P1 CHO-K1 cells; for Emax: CHO-K1, efficacy (SPAN) normalized to fingolimod, read-out: hS1P1 B-arrestin2 SPAN
Summary of the method: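 Enzyme-fragment complementation read-out: agonist-driven β-arrestin2 binding to ProLink-tagged human S1P1 in stable CHO-K1 cells restores β-galactosidase, measured 1 h at room temperature after a 60 min 37° C. compound incubation. Potency as pEC50, efficacy relative to fingolimod (SPAN).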
Target sequence in this assay (P21453 whole entry, looked up): as above
Target sequence in this assay (P32121 whole entry partner, looked up): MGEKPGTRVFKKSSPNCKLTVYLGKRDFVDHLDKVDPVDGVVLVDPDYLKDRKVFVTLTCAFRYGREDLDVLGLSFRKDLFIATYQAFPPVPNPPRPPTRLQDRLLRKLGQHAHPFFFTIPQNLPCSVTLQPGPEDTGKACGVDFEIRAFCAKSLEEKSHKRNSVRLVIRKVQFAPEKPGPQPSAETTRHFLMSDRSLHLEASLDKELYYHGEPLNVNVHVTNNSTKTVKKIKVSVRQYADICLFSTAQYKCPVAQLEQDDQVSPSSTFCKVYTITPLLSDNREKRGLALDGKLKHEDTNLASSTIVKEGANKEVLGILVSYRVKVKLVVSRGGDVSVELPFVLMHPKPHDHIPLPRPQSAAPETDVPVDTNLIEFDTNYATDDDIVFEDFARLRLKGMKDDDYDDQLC

SMILES | hS1P1 cAMP pEC50 [1] | hS1P1 B-arrestin2 pEC50 [2] | Emax [1] | Emax [2]
CC(C)(CO)Cn1nnc2cc(-c3noc(-c4ccncc4C(F)(F)F)n3)ccc21 [Compound 528, 2,2-dimethyl-3-(5-(5-(3-(trifluoromethyl)pyridin-4-yl)-1,2,4-oxadiazol-3-yl)-1H-benzo[d][1,2,3]triazol-1-yl)propan-1-ol] | <6.5 | <5 | – | –
CC(C)(CO)Cn1nnc2cc(-c3noc(-c4cnccc4C(F)(F)F)n3)ccc21 [Compound 529, 2,2-dimethyl-3-(5-(5-(4-(trifluoromethyl)pyridin-3-yl)-1,2,4-oxadiazol-3-yl)-1H-benzo[d][1,2,3]triazol-1-yl)propan-1-ol] | <6.5 | >5 | – | –
CCC1(CC)CC(=O)c2cc(-c3ncc(-c4ccccn4)cn3)ccc2O1 [Compound 530, 2,2-diethyl-6-(5-(pyridin-2-yl)pyrimidin-2-yl)chroman-4-one] | <6.5 | <5 | – | –
COc1cc(NC(C)=O)ccc1-c1noc(-c2ccc3c(c2)nnn3C(C)C)n1 [Compound 532, N-(3-methoxy-4-{5-[1-(propan-2-yl)-1H-1,2,3-benzotriazol-5-yl]-1,2,4-oxadiazol-3-yl}phenyl)acetamide] | >6.5 | >5 | > 75% | < 75%
COc1cc(NC(C)=O)ccc1-c1noc(-c2ccc3nonc3c2)n1 [Compound 533, N-{4-[5-(2,1,3-benzoxadiazol-5-yl)-1,2,4-oxadiazol-3-yl]-3-methoxyphenyl}acetamide] | <6.5 | <5 | – | –
COCCn1cc(-c2ccccc2C)cc1-c1ccc2c(c1)nnn2C(C)C [Compound 534, 5-[1-(2-methoxyethyl)-4-(2-methylphenyl)-1H-pyrrol-2-yl]-1-(propan-2-yl)-1H-1,2,3-benzotriazole] | <6.5 | <5 | < 75% | < 75%
CC1CC(=O)c2ccc(-c3nc(-c4cccnc4)no3)cc2O1 (stereo not drawn) [Compound 535, 2-methyl-7-[3-(pyridin-3-yl)-1,2,4-oxadiazol-5-yl]-3,4-dihydro-2H-1-benzopyran-4-one] | <6.5 | >5 | – | –
CC1CC(=O)c2ccc(-c3nc(-c4ccncc4)no3)cc2O1 (stereo not drawn) [Compound 536, 2-methyl-7-[3-(pyridin-4-yl)-1,2,4-oxadiazol-5-yl]-3,4-dihydro-2H-1-benzopyran-4-one] | <6.5 | >5 | – | –
CCC1(CC)CC(=O)c2cc(-c3nc(-c4cncc(C(N)=O)c4)no3)ccc2O1 [Compound 537, 5-(5-(2,2-diethyl-4-oxochroman-6-yl)-1,2,4-oxadiazol-3-yl)nicotinamide] | >6.5 | >5 | – | –
CCC1(CC)CC(=O)c2cc(-c3nc(-c4cncc(NC(C)=O)c4)no3)ccc2O1 [Compound 538, N-(5-(5-(2,2-diethyl-4-oxochroman-6-yl)-1,2,4-oxadiazol-3-yl)pyridin-3-yl)acetamide] | >6.5 | >5 | – | –
CCC1(CC)CC(=O)c2cc(-c3nc(-c4ccc5[nH]c(=O)[nH]c5c4)no3)ccc2O1 [Compound 539, 5-(5-(2,2-diethyl-4-oxochroman-6-yl)-1,2,4-oxadiazol-3-yl)-1H-benzo[d]imidazol-2(3H)-one] | >6.5 | >5 | – | –
Cc1nccnc1-c1nc(-c2ccc3c(c2)nnn3CC(C)(C)CO)no1 [Compound 540, 2,2-dimethyl-3-(5-(5-(3-methylpyrazin-2-yl)-1,2,4-oxadiazol-3-yl)-1H-benzo[d][1,2,3]triazol-1-yl)propan-1-ol] | <6.5 | <5 | – | –
Cc1ccncc1-c1nc(-c2ccc3c(c2)nnn3CC(C)(C)CO)no1 [Compound 541, 2,2-dimethyl-3-(5-(5-(4-methylpyridin-3-yl)-1,2,4-oxadiazol-3-yl)-1H-benzo[d][1,2,3]triazol-1-yl)propan-1-ol] | <6.5 | <5 | – | –
CC(C)n1nnc2cc(-c3cc(-c4ccccc4F)c[nH]3)ccc21 [Compound 542, 5-[4-(2-fluorophenyl)-1H-pyrrol-2-yl]-1-(propan-2-yl)-1H-1,2,3-benzotriazole] | <6.5 | >5 | – | –
CC(C)n1nnc2cc(-c3c[nH]c(-c4ccccc4)c3)ccc21 [Compound 543, 5-(5-phenyl-1H-pyrrol-3-yl)-1-(propan-2-yl)-1H-1,2,3-benzotriazole] | >6.5 | <5 | < 75% | < 75%
CC(C)n1nnc2cc(-c3cc(-c4ccccc4)n(C)c3)ccc21 [Compound 544, 5-(1-methyl-5-phenyl-1H-pyrrol-3-yl)-1-(propan-2-yl)-1H-1,2,3-benzotriazole] | <6.5 | >5 | – | –

SMILES | hS1P1 cAMP pEC50 [1] | hS1P1 B-arrestin2 pEC50 [2] | Emax [1] | Emax [2]
CCC1(CC)CC(=O)c2cc(-c3nc(-c4cncc(NS(C)(=O)=O)c4)no3)ccc2O1 [Compound 545, N-(5-(5-(2,2-diethyl-4-oxochroman-6-yl)-1,2,4-oxadiazol-3-yl)pyridin-3-yl)methanesulfonamide] | >6.5 | >5 | > 75% | > 75%
CCC1(CC)CC(=O)c2cc(-c3nc(-c4cnccc4C)no3)ccc2O1 [Compound 549, 2,2-diethyl-6-(3-(4-methylpyridin-3-yl)-1,2,4-oxadiazol-5-yl)chroman-4-one] | >6.5 | >5 | – | –
CCC1(CC)CC(=O)c2cc(-c3nc(-c4ccc(C)nc4)no3)ccc2O1 [Compound 550, 2,2-diethyl-6-(3-(6-methylpyridin-3-yl)-1,2,4-oxadiazol-5-yl)chroman-4-one] | <6.5 | >5 | – | –
CCC1(CC)CC(=O)c2cc(-c3nc(-c4cncc(F)c4)no3)ccc2O1 [Compound 551, 2,2-diethyl-6-(3-(5-fluoropyridin-3-yl)-1,2,4-oxadiazol-5-yl)chroman-4-one] | >6.5 | >5 | – | –
CCC1(CC)CC(=O)c2cc(-c3ncc(-c4ccnc(O)c4)cn3)ccc2O1 [Compound 552, 2,2-diethyl-6-(5-(2-hydroxypyridin-4-yl)pyrimidin-2-yl)chroman-4-one] | <6.5 | <5 | – | –
CCC1(CC)CC(=O)c2cc(-c3nc(-c4cccc(OC)n4)no3)ccc2O1 [Compound 553, 2,2-diethyl-6-[3-(6-methoxypyridin-2-yl)-1,2,4-oxadiazol-5-yl]-3,4-dihydro-2H-1-benzopyran-4-one] | <6.5 | >5 | – | –
CCC1(CC)CC(=O)c2cc(-c3nc(-c4ccsc4)no3)ccc2N1 [Compound 554, 2,2-diethyl-6-(3-(thiophen-3-yl)-1,2,4-oxadiazol-5-yl)-2,3-dihydroquinolin-4(1H)-one] | >6.5 | >5 | > 75% | > 75%
CCC1(CC)CC(=O)c2cc(-c3nc(-c4ccnc(C(N)=O)c4)no3)ccc2O1 [Compound 555, 4-(5-(2,2-diethyl-4-oxochroman-6-yl)-1,2,4-oxadiazol-3-yl)picolinamide] | >6.5 | >5 | – | –
CCC1(CC)CC(=O)c2cc(-c3nc(-c4ccnc(NS(C)(=O)=O)c4)no3)ccc2O1 [Compound 556, N-(4-(5-(2,2-diethyl-4-oxochroman-6-yl)-1,2,4-oxadiazol-3-yl)pyridin-2-yl)methanesulfonamide] | >6.5 | >5 | – | –
CCC1(CC)CC(=O)c2cc(-c3nc(-c4cncc(C(F)(F)F)c4)no3)ccc2O1 [Compound 557, 2,2-diethyl-6-(3-(5-(trifluoromethyl)pyridin-3-yl)-1,2,4-oxadiazol-5-yl)chroman-4-one] | <6.5 | >5 | – | –
CCC1(CC)CC(=O)c2cc(-c3noc(-c4cccnc4)n3)ccc2O1 [Compound 559, 2,2-diethyl-6-(5-(pyridin-3-yl)-1,2,4-oxadiazol-3-yl)chroman-4-one] | >6.5 | >5 | – | –
Cc1nc2cc(-c3nnc(-c4ccc(NCC(F)F)c(C#N)c4)o3)ccc2[nH]1 [Compound 561, 2-[(2,2-difluoroethyl)amino]-5-[5-(2-methyl-1H-1,3-benzodiazol-5-yl)-1,3,4-oxadiazol-2-yl]benzonitrile] | >6.5 | >5 | – | –
COc1ccccc1-c1cnc(-c2ccc3c(c2)nnn3C(C)C)nc1 [Compound 565, 1-isopropyl-5-(5-(2-methoxyphenyl)pyrimidin-2-yl)-1H-benzo[d][1,2,3]triazole] | >6.5 | >5 | – | –
COc1ccccc1-c1c[nH]c(-c2ccc3c(c2)nnn3C(C)C)c1 [Compound 566, 5-[4-(2-methoxyphenyl)-1H-pyrrol-2-yl]-1-(propan-2-yl)-1H-1,2,3-benzotriazole] | <6.5 | <5 | – | –
Cn1ccnc1-c1noc(-c2ccc3c(c2)nnn3CC(C)(C)O)n1 [Compound 567, 2-methyl-1-{5-[3-(1-methyl-1H-imidazol-2-yl)-1,2,4-oxadiazol-5-yl]-1H-1,2,3-benzotriazol-1-yl}propan-2-ol] | <6.5 | <5 | – | –

From US11912693B2, “Compounds for modulating S1P1 activity and methods of using the same” (TREVENA, INC., priority 2017, dated 2024)
